The text below walks through data of US20210147381A1, “1,2,3,4-SUBSTITUTED QUINOLINE COMPOUNDS AS SIP MODULATORS” (AbbVie Deutschland GmbH & Co. KG, priority 2017, published 2021).

Common to all, as to assay type: cell-based
In experiment [1] the target is T1, human S1P1 receptor (S1PR1) (Homo sapiens, UniProt P21453).
T1 construct: host or cells: CHO-K1
The experiment is described as follows: Intracellular Ca2+ release (method 1), agonist potency, S1P1. Conditions: CHO-K1 cells expressing human S1PR1; cells given as bound. The protocol: (§1) Agonistic activity and efficacy of compounds was assessed in recombinant cells using method 1 described below.
(§2) Agonist potency and efficacy were assessed by measurement of intracellular Ca^2+ release. Recombinant CHO-K1 cells (Euroscreen, Brussels, Belgium) expressing human S1PR5, S1PR1, S1PR3 or S1PR4 receptors, aequorin, and GTP binding protein Gq/i5 were cultured using a medium containing nutrient mixture F-12 Ham (Sigma-Aldrich) with 10% FBS, and 100 μg/mL gentamicin and equilibrated at 5% CO2.
(§3) 15,000 cells in 20 μL medium were seeded into Biocoat poly-D-Lysine coated 384 well plates (Becton Dickinson #35-6663) and grown to 95% confluency after 24 h.
(§4) Culture medium was replaced by an assay buffer consisting of HBBS with Ca^2+ and Mg^2+ (Invitrogen #14025-050), 20 mmol/L Hepes (Sigma-Aldrich #H-3375), 2.5 mmol/L probenecid (Sigma-Aldrich #P-8761, and 0.1% BSA (Sigma-Aldrich #A-7030) pH 7.4. The Calcium 5 no-wash FLIPR assay kit (Molecular Devices #5000625) was performed as described in the kit instructions. Cells were incubated with Calcium 5 dye for 1 h at 37° C., 5% CO2 in the dark. After 45 min adaptation to RT assessment of agonist stimulation of intracellular Ca^2+ release was performed by addition of test compounds at various concentrations obtained by serial dilution. Phospho-fingolimod was used as positive control and reference agonist (intrinsic activity 100%).
(§5) Agonism of test compounds at the human S1Px receptors were characterized by the EC50 values (potencies) deduced from a nonlinear 4 parametric logistic curve fit to the measured fluorescence data after normalization to the lower and upper plateaus of the fitted reference agonist's (phospho-fingolimod)effect curve and by their efficacy (Emax) values represented by their maximum achievable effects in % of the reference agonist's efficacy, which is defined as an Emax of 100%.

Experiment [2] has as its target T2, human S1P4 receptor (S1PR4) (Homo sapiens, UniProt O95977).
T2 construct: host or cells: CHO-K1
T2 sequence (O95977 1-384): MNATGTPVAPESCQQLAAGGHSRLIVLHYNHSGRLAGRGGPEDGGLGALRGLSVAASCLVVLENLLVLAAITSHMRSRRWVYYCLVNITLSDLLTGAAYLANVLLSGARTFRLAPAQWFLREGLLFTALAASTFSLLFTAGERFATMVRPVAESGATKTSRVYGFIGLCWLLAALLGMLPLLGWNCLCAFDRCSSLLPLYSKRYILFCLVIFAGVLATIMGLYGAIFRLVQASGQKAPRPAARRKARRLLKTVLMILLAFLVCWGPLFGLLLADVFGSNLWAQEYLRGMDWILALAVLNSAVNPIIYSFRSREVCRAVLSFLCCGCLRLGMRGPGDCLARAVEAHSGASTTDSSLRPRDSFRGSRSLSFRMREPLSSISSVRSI
Nature of the experiment: Intracellular Ca2+ release (method 1), agonist potency, S1P4. Conditions: CHO-K1 cells expressing human S1PR4. The method, then: as §1, §2, §3, §4, §5

Experiment [3] concerns the target T3, human S1P5 receptor (S1PR5) (Homo sapiens, UniProt Q9H228).
T3 construct: host or cells: CHO-K1
Nature of the experiment: Intracellular Ca2+ release (method 1), agonist potency and efficacy, S1P5. Conditions: for Emax: read-out: hS1P5 EMax; for pEC50: recombinant CHO-K1 cells expressing human S1PR5, aequorin, Gq/i5, Ca2+ release, read-out: S1P5 EC50 range. The method, then: as §1, §2, §3, §4, §5

Where [4] appears, read: maximum effect in % of reference agonist phospho-fingolimod (100%).

pEC50: −log10 of the molar value. Bounds are passed on as bounds.

One may read the pEC50 as the negative decadic logarithm of the EC50, by convention in mol/L. In general, Emax refers to the greatest response seen or fitted, relative to the assay's reference.

T1 sequence (P21453 whole entry): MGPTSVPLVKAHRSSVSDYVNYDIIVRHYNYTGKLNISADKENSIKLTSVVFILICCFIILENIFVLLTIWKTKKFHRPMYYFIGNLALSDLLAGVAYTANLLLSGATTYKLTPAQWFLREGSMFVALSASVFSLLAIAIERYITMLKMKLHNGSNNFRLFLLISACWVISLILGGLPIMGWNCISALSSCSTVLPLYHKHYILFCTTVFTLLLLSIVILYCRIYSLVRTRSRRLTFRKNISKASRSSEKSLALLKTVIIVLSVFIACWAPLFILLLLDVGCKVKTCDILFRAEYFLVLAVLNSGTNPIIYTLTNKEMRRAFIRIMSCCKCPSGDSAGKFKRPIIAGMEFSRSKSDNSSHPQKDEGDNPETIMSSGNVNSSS
T3 sequence (Q9H228 whole entry): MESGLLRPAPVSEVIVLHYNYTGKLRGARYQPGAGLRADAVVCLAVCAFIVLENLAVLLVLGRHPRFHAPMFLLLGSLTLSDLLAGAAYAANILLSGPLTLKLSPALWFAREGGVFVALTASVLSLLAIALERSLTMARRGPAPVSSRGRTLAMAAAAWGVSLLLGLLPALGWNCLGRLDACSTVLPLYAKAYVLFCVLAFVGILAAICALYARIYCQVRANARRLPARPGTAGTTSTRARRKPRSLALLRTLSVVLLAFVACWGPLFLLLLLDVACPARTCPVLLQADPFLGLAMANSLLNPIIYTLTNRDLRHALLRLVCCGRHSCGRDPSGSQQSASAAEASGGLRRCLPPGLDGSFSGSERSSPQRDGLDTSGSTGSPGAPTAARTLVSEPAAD

Turning to `O=C(O)CCCN1Cc2ccc(C#Cc3ccc4c(c3)OCO4)cc2C2(CC2)C1` [Compound 56, 4-(6′-(benzo[d][1,3]dioxol-5-ylethynyl)-1′H-spiro[cyclopropane-1,4′-isoquinolin]-2′(3′H)-yl)butanoic acid], the pEC50 was less than 6.00 in experiment [1], less than 6.00 in experiment [2] (cells given as bound) and 5.00 to 6.00 in experiment [3]. Besides, the maximal response (Emax) in experiment [3] (setting [4]) was 50 to 100%.

Take `O=C(O)CCCN1Cc2ccc(C#Cc3ccc(=O)n(CC4CC4)c3)cc2C2(CC2)C1` [Compound 4, 4-(6′-((1-(cyclopropylmethyl)-6-oxo-1,6-dihydropyridin-3-yl)ethynyl)-1′H-spiro[cyclopropane-1,4′-isoquinolin]-2′(3′H)-yl)butanoic acid]: the pEC50 is less than 6.00 in experiment [1], less than 6.00 in experiment [2] (cells given as bound) and 5.00 to 6.00 in experiment [3]. Besides, in experiment [3] (setting [4]), the Emax lay within 50 to 100%.

On to `CC(CC(=O)O)CN1Cc2ccc(C#Cc3ccsc3)cc2C2(CC2)C1` (stereo not drawn) [Compound 68, 3-methyl-4-(6′-(thiophen-3-ylethynyl)-1′H-spiro[cyclopropane-1,4′-isoquinolin]-2′(3′H)-yl)butanoic acid], for which the values for the pEC50 in experiment [1], in experiment [2] (cells given as bound) and in experiment [3] were less than 6.00, less than 6.00 and 7.00 to 8.00, respectively. Besides, the Emax in experiment [3] (setting [4]) lay in the range of 50 to 100%.

For `CC(C)Oc1ccc(C#Cc2ccc3c(c2)C2(CC2)CN(C2CC(C(=O)O)C2)C3)nc1` (stereo not drawn) [Compound 70, 3-(6′-((5-isopropoxypyridin-2-yl)ethynyl)-1′H-spiro[cyclopropane-1,4′-isoquinolin]-2′(3′H)-yl)cyclobutanecarboxylic acid], the pEC50 is less than 6.00 in experiment [1], less than 6.00 in experiment [2] (cells given as bound) and 7.00 to 8.00 in experiment [3]. The Emax in experiment [3] (setting [4]) fell in the range of 50 to 100%.

With `COc1ccc(C#Cc2ccc3c(c2)C2(CC2)CN(CCCC(=O)O)C3)c(C)n1` [Compound 57, 4-(6′-((6-methoxy-2-methylpyridin-3-yl)ethynyl)-1′H-spiro[cyclopropane-1,4′-isoquinolin]-2′(3′H)-yl)butanoic acid], the pEC50 in experiment [1] is less than 6.00; in experiment [2] (cells given as bound), less than 6.00; in experiment [3], 5.00 to 6.00. In experiment [3] (setting [4]), the Emax fell in the range of 50 to 100%.

As to `CC(=O)O.O=C(O)CCN1Cc2ccc(C#Cc3c(Cl)cccc3Cl)cc2C2(CC2)C1` [Compound 30, 3-(6′-((2,6-dichlorophenyl)ethynyl)-1′H-spiro[cyclopropane-1,4′-isoquinolin]-2′(3′H)-yl)propanoic acid acetic acid salt (1:1)], the pEC50 in experiment [2] is 6.00 to 7.00. Moreover, the “hS1P5 EMax” value in experiment [3] (setting [4]) was “++ (EMax = 50-100, determined with method 1)”.

For the compound `CCOc1ncc(C#Cc2ccc3c(c2)C2(CC2)CN(CCCC(=O)O)C3)cc1F` [Compound 51, 4-(6′-((6-ethoxy-5-fluoropyridin-3-yl)ethynyl)-1′H-spiro[cyclopropane-1,4′-isoquinolin]-2′(3′H)-yl)butanoic acid], the results for the pEC50 in experiment [1], in experiment [2] (cells given as bound) and in experiment [3] were less than 6.00, less than 6.00 and 6.00 to 7.00, respectively. The Emax in experiment [3] (setting [4]) lay within 50 to 100%.

`CC(CC(=O)O)CN1Cc2ccc(C#Cc3ccc(C(C)C)cc3)cc2C2(CC2)C1` (stereo not drawn) [Compound 60, 4-(6′-((4-isopropylphenyl)ethynyl)-1′H-spiro[cyclopropane-1,4′-isoquinolin]-2′(3′H)-yl)-3-methylbutanoic acid]: the values for the pEC50 in experiment [1], in experiment [2] (cells given as bound) and in experiment [3] were less than 6.00, less than 6.00 and greater than 8.00, respectively. Moreover, the Emax in experiment [3] (setting [4]) fell in the range of 50 to 100%.

For `O=C(O)C1(CN2Cc3ccc(C#Cc4ccc(OC5CCCC5)nc4)cc3C3(CC3)C2)CC1` [Compound 9, 1-((6′-((6-(cyclopentyloxy)pyridin-3-yl)ethynyl)-1′H-spiro[cyclopropane-1,4′-isoquinolin]-2′(3′H)-yl)methyl)cyclopropanecarboxylic acid], the values for the pEC50 in experiment [1], in experiment [2] (cells given as bound) and in experiment [3] were less than 6.00, less than 6.00 and 6.00 to 7.00, respectively. Besides, the Emax in experiment [3] (setting [4]) was greater than 100%.

For the compound `CC(CC(=O)O)CN1Cc2ccc(C#Cc3ccc(OC(C)C)cc3)cc2C2(CC2)C1` (stereo not drawn) [Compound 62, 4-(6′-((4-isopropoxyphenyl)ethynyl)-1′H-spiro[cyclopropane-1,4′-isoquinolin]-2′(3′H)-yl)-3-methylbutanoic acid], the pEC50 in experiment [1] was less than 6.00; in experiment [2] (cells given as bound) it was less than 6.00; in experiment [3], greater than 8.00. The Emax in experiment [3] (setting [4]) was greater than 100%.

As to `CCOc1ccc(C#Cc2ccc3c(c2)C2(CC2)CN(CCCC(=O)O)C3)c(C)n1` [Compound 53, 4-(6′-((6-ethoxy-2-methylpyridin-3-yl)ethynyl)-1′H-spiro[cyclopropane-1,4′-isoquinolin]-2′(3′H)-yl)butanoic acid], the pEC50 in experiment [1] is less than 6.00; in experiment [2] (cells given as bound), less than 6.00; in experiment [3], 6.00 to 7.00. Also, the Emax in experiment [3] (setting [4]) fell in the range of 50 to 100%.

As to `CCOc1ccc(C#Cc2ccc3c(c2)C2(CC2)CN(CC(C)CC(=O)O)C3)cc1` (stereo not drawn) [Compound 63, 4-(6′-((4-ethoxyphenyl)ethynyl)-1′H-spiro[cyclopropane-1,4′-isoquinolin]-2′(3′H)-yl)-3-methylbutanoic acid], the pEC50 is less than 6.00 in experiment [1], less than 6.00 in experiment [2] (cells given as bound) and 7.00 to 8.00 in experiment [3]. Moreover, in experiment [3] (setting [4]), the Emax was in the range of 50 to 100%.

Consider `CCOc1cc(C)c(C#Cc2ccc3c(c2)C2(CC2)CN(CCCC(=O)O)C3)cn1` [Compound 49, 4-(6′-((6-ethoxy-4-methylpyridin-3-yl)ethynyl)-1′H-spiro[cyclopropane-1,4′-isoquinolin]-2′(3′H)-yl)butanoic acid], for which the pEC50 in experiment [1] was less than 6.00; in experiment [2] (cells given as bound), less than 6.00; in experiment [3], 7.00 to 8.00. For the same compound, in experiment [3] (setting [4]), the Emax fell in the range of 50 to 100%.

Consider `CCOc1ccc(C#Cc2ccc3c(c2)C2(CC2)CN(CCCC(=O)O)C3)cn1` [Compound 50, 4-(6′-((6-ethoxypyridin-3-yl)ethynyl)-1′H-spiro[cyclopropane-1,4′-isoquinolin]-2′(3′H)-yl)butanoic acid], for which the figures for the pEC50 in experiment [1], in experiment [2] (cells given as bound) and in experiment [3] were less than 6.00, less than 6.00 and 6.00 to 7.00, respectively. For the same compound, in experiment [3] (setting [4]), the Emax lay within 50 to 100%.

As for `CCOc1ccc(C#Cc2ccc3c(c2)C2(CC2)CN(CC(C)CC(=O)O)C3)cc1F` (stereo not drawn) [Compound 69, 4-(6′-((4-ethoxy-3-fluorophenyl)ethynyl)-1′H-spiro[cyclopropane-1,4′-isoquinolin]-2′(3′H)-yl)-3-methylbutanoic acid], the pEC50 was less than 6.00 in experiment [1], less than 6.00 in experiment [2] (cells given as bound) and 7.00 to 8.00 in experiment [3]. Also, the Emax in experiment [3] (setting [4]) was greater than 100%.

On to `CC(C)Oc1ccc(C#Cc2ccc3c(c2)C2(CC2)CN(CC2(C(=O)O)CC2)C3)cc1` [Compound 8, 1-((6′-((4-isopropoxyphenyl)ethynyl)-1′H-spiro[cyclopropane-1,4′-isoquinolin]-2′(3′H)-yl)methyl)cyclopropanecarboxylic acid], for which the figures for the negative logarithm of the EC50 (pEC50) in experiment [1], in experiment [2] (cells given as bound) and in experiment [3] were less than 6.00, less than 6.00 and 6.00 to 7.00, respectively. The Emax in experiment [3] (setting [4]) lay within 50 to 100%.

Turning to `CC(CC(=O)O)CN1Cc2ccc(C#Cc3ccc(OC(C)C)nc3)cc2C2(CC2)C1` (stereo not drawn) [Compound 59, 4-(6′-((6-isopropoxypyridin-3-yl)ethynyl)-1′H-spiro[cyclopropane-1,4′-isoquinolin]-2′(3′H)-yl)-3-methylbutanoic acid], the pEC50 in experiment [1] was less than 6.00; in experiment [2] (cells given as bound) it was less than 6.00; in experiment [3], greater than 8.00. Moreover, in experiment [3] (setting [4]), the Emax was in the range of 50 to 100%.
